PMC9246205, “Olmesartan medoxomil self-microemulsifying drug delivery system reverses apoptosis and improves cell adhesion in trinitrobenzene sulfonic acid-induced colitis in rats” (Drug Delivery, 2022)

What was measured:
Assay type in all cases: in vivo, rat
[1] = system: trinitrobenzene sulfonic acid-induced acute colitis; test: Disease activity score in TNBS-induced acute colitis; details: TNBS-colitic rats, 7 days, mean ± SEM, n = 8
Protocol: (§1) The rats were food-deprived for a day, and colitis was induced as previously described (Wang et al., [2010]). Rats were anesthetized with ether and then a 5% TNBS (Sigma, St Louis, USA) (100 mg/kg) dissolved in 0.25 mL of 50% ethanol (v/v) (2:1) was administered by a polyethylene catheter introduced rectally to 6–8 cm from the anus. Rats were set in a head-down position for 30 seconds to avoid leakage of the solution (Lu et al., [2017]). Rats were randomly divided into seven groups (n = 8) including the normal control (NC) group, TNBS-colitic (positive control, PC) group, and five TNBS-colitic-treated groups which were orally given sulfasalazine (SSZ, 100 mg/kg/day, a reference treatment for IBD) (Yousefi-Ahmadipour et al., [2020]), low and high doses of OM (OML and OMH: 3.0 and 10.0 mg/kg/day (Nagib et al., [2013])) as a raw drug and as an OMS (OMSL and OMSH). OM was suspended in distilled water containing 0.25% carboxymethyl cellulose (Gorain et al., [2014]; Komesli et al., [2019]). The treatments were given for 7 days starting 4 hours after TNBS administration (Lu et al., [2017]). Rats were evaluated for the colitis activity score. At end of the treatment period, blood was collected, and rats were sacrificed. The colon was excised, cleaned with ice-cold saline, measured for weight and length, and the macroscopic appearance was evaluated. Parts of the colon were homogenized and activities/levels of myeloperoxidase (MPO), tumor necrosis factor-α (TNF-α), interleukin-6 (IL-6), malondialdehyde (MDA), and reduced glutathione (GSH) were measured. The concentrations of olmesartan in plasma and colonic homogenate were measured by high performance liquid chromatography/mass spectrometry (HPLC/MS). Samples of the colon were obtained for hematoxylin and eosin (H&E) and immunohistochemical staining (Joo et al., [2015])). […]
The colitis activity index was measured to evaluate the activity of intestinal inflammation. The scores for weight loss, stool consistency, and fecal blood were calculated to give a disease activity score (DAS) as previously described (Wang et al., [2014]). […]

[2] = system: trinitrobenzene sulfonic acid-induced acute colitis; test: Colonic macroscopic examination and colon weight/length ratio in TNBS-induced acute colitis; details: TNBS-colitic rats, 7 days; for Colon weight/length ratio: mean ± SEM, n = 8
Protocol: (§2) The rats were food-deprived for a day, and colitis was induced as previously described (Wang et al., [2010]). Rats were anesthetized with ether and then a 5% TNBS (Sigma, St Louis, USA) (100 mg/kg) dissolved in 0.25 mL of 50% ethanol (v/v) (2:1) was administered by a polyethylene catheter introduced rectally to 6–8 cm from the anus. Rats were set in a head-down position for 30 seconds to avoid leakage of the solution (Lu et al., [2017]). Rats were randomly divided into seven groups (n = 8) including the normal control (NC) group, TNBS-colitic (positive control, PC) group, and five TNBS-colitic-treated groups which were orally given sulfasalazine (SSZ, 100 mg/kg/day, a reference treatment for IBD) (Yousefi-Ahmadipour et al., [2020]), low and high doses of OM (OML and OMH: 3.0 and 10.0 mg/kg/day (Nagib et al., [2013])) as a raw drug and as an OMS (OMSL and OMSH). OM was suspended in distilled water containing 0.25% carboxymethyl cellulose (Gorain et al., [2014]; Komesli et al., [2019]). The treatments were given for 7 days starting 4 hours after TNBS administration (Lu et al., [2017]). Rats were evaluated for the colitis activity score. At end of the treatment period, blood was collected, and rats were sacrificed. The colon was excised, cleaned with ice-cold saline, measured for weight and length, and the macroscopic appearance was evaluated. Parts of the colon were homogenized and activities/levels of myeloperoxidase (MPO), tumor necrosis factor-α (TNF-α), interleukin-6 (IL-6), malondialdehyde (MDA), and reduced glutathione (GSH) were measured. The concentrations of olmesartan in plasma and colonic homogenate were measured by high performance liquid chromatography/mass spectrometry (HPLC/MS). Samples of the colon were obtained for hematoxylin and eosin (H&E) and immunohistochemical staining (Joo et al., [2015])). All evaluations were made by blinded observers.
The colon was measured for weight and length. The degree of colonic damage regarding edema, ulceration, bleeding, and necrosis was expressed as mild, moderate, or severe (Ghia et al., [2006]).

[3] = system: myeloperoxidase (MPO); test: Colonic MPO activity (ELISA, colon homogenate); details: TNBS-colitic rats, 7 days, mean ± SEM, n = 8
Protocol: as §1, with “At end of the treatment period, blood was collected, and rats were sacrificed.” left out, “(HPLC/MS).” for “(HPLC/MS). Samples of the colon were obtained for hematoxylin and eosin (H&E) and immunohistochemical staining (Joo et al., [2015])).”
(§3) The colonic samples were homogenized using phosphate-buffered saline and a TissueLyser II (Qiagen) at 4 °C to yield a 10% homogenate. […] The colonic protein content was determined by using the Bradford method (Bradford, 1976). The activities and/or levels of MPO (a marker for neutrophil infiltration), TNF-α, IL-6, MDA, and GSH were measured using ELISA kits (MyBioSource, Inc. CA, USA) according to the manufacturer's guidelines and were expressed/mg protein.

[4] = system: tumor necrosis factor-α (TNF-α); test: Colonic TNF-α (ELISA, colon homogenate); details: TNBS-colitic rats, 7 days, mean ± SEM, n = 8
Protocol: as §1, with “At end of the treatment period, blood was collected, and rats were sacrificed.” left out, “(HPLC/MS).” for “(HPLC/MS). Samples of the colon were obtained for hematoxylin and eosin (H&E) and immunohistochemical staining (Joo et al., [2015])).”
as §3

[5] = system: interleukin-6 (IL-6); test: Colonic IL-6 (ELISA, colon homogenate); details: TNBS-colitic rats, 7 days, mean ± SEM, n = 8
Protocol: as §1, with “At end of the treatment period, blood was collected, and rats were sacrificed.” left out, “(HPLC/MS).” for “(HPLC/MS). Samples of the colon were obtained for hematoxylin and eosin (H&E) and immunohistochemical staining (Joo et al., [2015])).”
as §3

[6] = system: reduced glutathione (GSH); test: Colonic GSH (ELISA, colon homogenate); details: TNBS-colitic rats, 7 days, mean ± SEM, n = 8
Protocol: as §1, with “At end of the treatment period, blood was collected, and rats were sacrificed.” left out, “(HPLC/MS).” for “(HPLC/MS). Samples of the colon were obtained for hematoxylin and eosin (H&E) and immunohistochemical staining (Joo et al., [2015])).”
as §3

[7] = system: trinitrobenzene sulfonic acid-induced acute colitis; test: Colonic histopathological examination (H&E); details: TNBS-colitic rats, 7 days
Protocol: as §1
The colonic parts were fixed in 10% buffered formalin and embedded in paraffin. Sections (3–5 µm) were prepared and stained with H&E. The degree of inflammation was expressed as mild, moderate, or severe (Wirtz et al., [2007]).

[8] = system: E-cadherin; test: Colonic E-cadherin immunostaining; details: TNBS-colitic rats, 7 days
Protocol: as §1, with “(HPLC/MS).” for “(HPLC/MS). Samples of the colon were obtained for hematoxylin and eosin (H&E) and immunohistochemical staining (Joo et al., [2015])).”
(§4) Colonic sections were immunohistochemically stained for E-cadherin and Caspase-3 (ab13847; Abcam; 1:500 dilution). […] For MMP-9 immunostaining, the sections were probed with rabbit and mouse monoclonal anti-MMP-9 (1:150 dilution), detected with sheep anti-rabbit or anti-mouse IgG fluorescein isothiocyanate (1:500 dilution), and examined under a fluorescent microscope (Baugh et al., [1999]).

[9] = system: caspase-3; test: Colonic caspase-3 immunostaining; details: TNBS-colitic rats, 7 days
Protocol: as §1, with “(HPLC/MS).” for “(HPLC/MS). Samples of the colon were obtained for hematoxylin and eosin (H&E) and immunohistochemical staining (Joo et al., [2015])).”
as §4

[10] = system: matrix metalloproteinase-9 (MMP-9); test: Colonic MMP-9 immunostaining; details: TNBS-colitic rats, 7 days
Protocol: as §1, with “(HPLC/MS).” for “(HPLC/MS). Samples of the colon were obtained for hematoxylin and eosin (H&E) and immunohistochemical staining (Joo et al., [2015])).”
as §4

[11] = system: E-cadherin, Bax, Bcl-2, cleaved caspase-3; test: Western blot of colonic E-cadherin, Bax, Bcl-2 and cleaved caspase-3; details: TNBS-colitic rats, 7 days
Protocol: as §2, with “observers. […]” for “observers.”

[12] = system: malondialdehyde (MDA); test: Colonic MDA (ELISA, colon homogenate); details: TNBS-colitic rats, 7 days, mean ± SEM, n = 8
Protocol: The rats were food-deprived for a day, and colitis was induced as previously described (Wang et al., [2010]). Rats were anesthetized with ether and then a 5% TNBS (Sigma, St Louis, USA) (100 mg/kg) dissolved in 0.25 mL of 50% ethanol (v/v) (2:1) was administered by a polyethylene catheter introduced rectally to 6–8 cm from the anus. Rats were set in a head-down position for 30 seconds to avoid leakage of the solution (Lu et al., [2017]). […] Rats were evaluated for the colitis activity score. […] The colon was excised, cleaned with ice-cold saline, measured for weight and length, and the macroscopic appearance was evaluated. Parts of the colon were homogenized and activities/levels of myeloperoxidase (MPO), tumor necrosis factor-α (TNF-α), interleukin-6 (IL-6), malondialdehyde (MDA), and reduced glutathione (GSH) were measured. The concentrations of olmesartan in plasma and colonic homogenate were measured by high performance liquid chromatography/mass spectrometry (HPLC/MS). […]
The colonic samples were homogenized using phosphate-buffered saline and a TissueLyser II (Qiagen) at 4 °C to yield a 10% homogenate. […] The colonic protein content was determined by using the Bradford method (Bradford, 1976). […]

[13] = high dose 10.0 mg/kg/day orally

With `O=C(O)c1cc(/N=N/c2ccc(S(=O)(=O)Nc3ccccn3)cc2)ccc1O` [SSZ, sulfasalazine] the Disease activity score ([1]; 100 mg/kg/day orally) was 0.45 ± 0.06 $, the “colonic macroscopic appearance (damage)” value ([2]; 100 mg/kg/day orally) was “greatly improved” and the Colon weight/length ratio ([2]; 100 mg/kg/day orally) was 78.23 ± 2.11 $ mg/cm. For the same compound, the MPO activity ([3]; 100 mg/kg/day orally) was 8.01 ± 0.30 $, @ U/mg protein, the TNF-α ([4]; 100 mg/kg/day orally) was 20.49 ± 0.73 $ pg/mg protein and the IL-6 ([5]; 100 mg/kg/day orally) was 65.06 ± 1.46 $ pg/mg protein. For the same compound, the GSH ([6]; 100 mg/kg/day orally) was 39.75 ± 1.38 $ nmol/mg protein, the “colonic histopathological damage (H&E)” value ([7]; 100 mg/kg/day orally) was “nearly normalized the colonic damage” and the “colonic E-cadherin expression (immunostaining)” value (“colonic E-cadherin expression” below) ([8]; 100 mg/kg/day orally) was “greatly upregulated and nearly normalized”. The “colonic caspase-3 expression (immunostaining)” value (shortened to “colonic caspase-3 expression”) ([9]; 100 mg/kg/day orally) was “greatly decreased and nearly normalized”, the “colonic MMP-9 overexpression (immunostaining)” value (“colonic MMP-9 overexpression” below) ([10]; 100 mg/kg/day orally) was “marked improvement” and the “protein expression of colonic E-cadherin, Bax, Bcl-2, cleaved caspase-3 and Bcl-2/Bax ratio (Western blot)” value ([11]; 100 mg/kg/day orally) was “marked improvement”.

With `CCCc1nc(C(C)(C)O)c(C(=O)OCc2oc(=O)oc2C)n1Cc1ccc(-c2ccccc2-c2nnn[nH]2)cc1` [OM, Olmesartan medoxomil] the Disease activity score [1, 13] was 3.01 ± 0.25 #, the Disease activity score ([1]; low dose 3.0 mg/kg/day orally) was 5.69 ± 0.26 ^ and the “colonic macroscopic appearance (damage)” value [2, 13] was “moderate improvement”. The Colon weight/length ratio [2, 13] was 121.50 ± 6.91 # mg/cm, the “colonic macroscopic appearance (damage)” value ([2]; low dose 3.0 mg/kg/day orally) was “mild improvement” and the Colon weight/length ratio ([2]; low dose 3.0 mg/kg/day orally) was 176.63 ± 3.49 ^ mg/cm. The MPO activity [3, 13] was 14.52 ± 0.61 # U/mg protein, the MPO activity ([3]; low dose 3.0 mg/kg/day orally) was 20.90 ± 1.06 ^ U/mg protein and the TNF-α [4, 13] was 51.45 ± 2.47 # pg/mg protein. The TNF-α ([4]; low dose 3.0 mg/kg/day orally) was 69.98 ± 3.50 ^ pg/mg protein, the IL-6 [5, 13] was 122.43 ± 4.29 # pg/mg protein and the IL-6 ([5]; low dose 3.0 mg/kg/day orally) was 160.57 ± 5.73 ^ pg/mg protein. The MDA [12, 13] was 149.57 ± 2.26 # nmol/mg protein, the MDA ([12]; low dose 3.0 mg/kg/day orally) was 221.25 ± 6.23 ^ nmol/mg protein and the GSH [6, 13] was 29.03 ± 1.44 # nmol/mg protein. The GSH ([6]; low dose 3.0 mg/kg/day orally) was 19.77 ± 0.55 ^ nmol/mg protein, the “colonic histopathological damage (H&E)” value [7, 13] was “moderate improvement” and the “colonic histopathological damage (H&E)” value ([7]; low dose 3.0 mg/kg/day orally) was “mild improvement”. For the same compound, the “colonic E-cadherin expression” value [8, 13] was “moderate improvement”, the “colonic E-cadherin expression” value ([8]; low dose 3.0 mg/kg/day orally) was “mild improvement” and the “colonic caspase-3 expression” value [9, 13] was “moderate improvement”. For the same compound, the “colonic caspase-3 expression” value ([9]; low dose 3.0 mg/kg/day orally) was “mild improvement”, the “colonic MMP-9 overexpression” value [10, 13] was “moderate improvement” and the “colonic MMP-9 overexpression” value ([10]; low dose 3.0 mg/kg/day orally) was “mild improvement”. For the same compound, the “protein expression of colonic E-cadherin, Bax, Bcl-2, cleaved caspase-3 and Bcl-2/Bax ratio (Western blot)” value [11, 13] was “moderate improvements” and the “protein expression of colonic E-cadherin, Bax, Bcl-2, cleaved caspase-3 and Bcl-2/Bax ratio (Western blot)” value ([11]; low dose 3.0 mg/kg/day orally) was “mild improvement”.
